Measured values published in patent US9709558B2, “Compound arrays for sample profiling” (priority 2009, dated 2017).

Tests used:
influenza A/PR/8/34 = type: in vivo, BALB/c mice; conditions: lethal challenge with influenza A/PR/8/34
whole virus = test: Serum IgG ELISA against whole virus in immunized mice; type: in vivo; conditions: archived murine serum samples
KLH = test: Anti-KLH serum IgG ELISA in immunized mice; type: in vivo; conditions: archived murine serum samples

keyhole limpet hemocyanin [KLH]
outcome following lethal challenge (influenza A/PR/8/34): no benefit over naives | average IgG titer against whole virus (whole virus): 800 | average anti-KLH IgG titer (KLH): 819,000
